Laboratory results: patent US11690860B2, “Treatment of HCV infected patients with cirrhosis” (Atea Pharmaceuticals, Inc., priority 2018, dated 2023)
Values joined by “and” are separate entries in the source; they are usually repeats but may differ in a detail not shown here. Identical values can stand only once. “Also recorded” adds a separate entry of the source. Counter-ions that a name gives are not always drawn.

Columns and labels:
Format in all cases: in vivo, human
GT1b HCV [1] = experiment: Part B: single ascending dose study, HCV RNA reduction in non-cirrhotic GT1b HCV-infected subjects
Experimental: (§1) HCV-infected patients were treatment-naïve with HCV RNA ≥5 log 10 IU/mL. HCV RNA was quantified using COBAS® AmpliPrep TaqMAN® v2.0 with LLQ of 15 IU/mL. Plasma drug levels were measured using LC-MS/MS. […] Cirrhosis was confirmed by prior liver biopsy or Fibroscan >12.5 kPa. […] Mean ages of enrolled subjects were 44, 39, and 56 years in the non-cirrhotic GT1b 600 mg dose cohort, non-cirrhotic GT3 cohort, and the cirrhotic cohort, respectively.
Part A and Part B were previously conducted and described in WO 2018/144640. Part A and Part B were single ascending dose (SAD) studies.

GT1b HCV [2] = experiment: Part C: multiple ascending dose study, 7 days QD, HCV RNA change in non-cirrhotic GT1 HCV-infected patients; conditions: for Mean ± SD HCV RNA maximum change from baseline / Individual HCV RNA maximum change from baseline / Mean ± SD HCV RNA change from baseline to 24 h: NC GT1b; for Mean ± SD HCV RNA maximum change from baseline / Mean ± SD HCV RNA change from baseline to 24 h: N=6
Experimental: (§2) Doses were administered as the Compound 2 salt base. The free base Compound 1 equivalent is often given in parenthesis.
(§3) Part C was a randomized, double-blind, placebo-controlled MAD study divided into three cohorts. […] The dose escalation only proceeded following satisfactory review of the data.
as §1

[3] = Safety/tolerability in the study of Compound 2
Experimental: as §2, §3
However, this observation is consistent with previously published data showing rapid increase in lipids with HCV clearance upon initiation of DAA therapy in HCV-infected subjects.

HCV GT1, GT2, GT3 = experiment: All 600 mg QD cohorts (Parts C/D/E) taken together, plasma HCV RNA
Experimental: as §2, §3, §1

[4] = Plasma pharmacokinetics of Compound 1 and metabolite 1-7 (LC-MS/MS) in Parts C, D and E; conditions: based on plasma exposures
Experimental: as §2, §3, §1
Plasma levels of metabolite 1-7 were measured using LC-MS/MS.

GT3 HCV = experiment: Part D: 600 mg QD for 7 days, HCV RNA change in non-cirrhotic GT3 HCV-infected patients; conditions: for Individual HCV RNA maximum change from baseline / Mean ± SD HCV RNA maximum change from baseline / Mean ± SD HCV RNA change from baseline to 24 h: Part D; for Individual HCV RNA maximum change from baseline / Mean ± SD HCV RNA maximum change from baseline: NC GT3, 600 mg/day QD 7 days; for Mean ± SD HCV RNA maximum change from baseline / Mean ± SD HCV RNA change from baseline to 24 h: N=6; for Mean ± SD HCV RNA change from baseline to 24 h: NC GT3, 600 mg/day
Experimental: (§4) Doses were administered as the Compound 2 salt base. The free base Compound 1 equivalent is often given in parenthesis. […]
as §1

GT1, GT2, or GT3 HCV = experiment: Part E: 600 mg QD for 7 days, HCV RNA change in Child-Pugh A cirrhotic patients; conditions: for Mean Reduction After 24 hours: 600 mg; for Mean ± SD HCV RNA maximum change from baseline / Mean ± SD HCV RNA change from baseline to 24 h / Individual HCV RNA maximum change from baseline: Part E; for Mean ± SD HCV RNA maximum change from baseline: Child-Pugh A cirrhotic GT1/GT2/GT3, 600 mg/day QD 7 days; for Mean ± SD HCV RNA maximum change from baseline / Mean ± SD HCV RNA change from baseline to 24 h: N=6; for Mean ± SD HCV RNA change from baseline to 24 h: Child-Pugh A cirrhotic GT1/GT2/GT3, 600 mg/day
Experimental: as §4, §1

[5] = Part C, 600 mg/day QD 7 days, listed as Compd 2
[6] = GT1, Child-Pugh A, 600 mg QD 7 days, n=3
[7] = GT3, Child-Pugh A, 600 mg QD 7 days, n=1

CNc1nc(N)nc2c1ncn2[C@@H]1O[C@H](CO[P@@](=O)(N[C@@H](C)C(=O)OC(C)C)Oc2ccccc2)[C@@H](O)[C@@]1(C)F [Compound 2, hemi-sulfate salt of isopropyl((S)-(((2R,3R,4R,5R)-5-(2-amino-6-(methylamino)-9H-purin-9-yl)-4-fluoro-3-hydroxy-4-methyltetrahydrofuran-2-yl)methoxy)(phenoxy)phosphoryl)-L-alaninate]
Individual Max Reduction of HCV RNA (GT1b HCV [1]; 600 mg Compound 2 (equivalent of 550 mg Compound 1)): 2.1 log10 IU/ml and 2.3 log10 IU/ml and 2.6 log10 IU/ml | Mean Max Reduction of HCV RNA (GT1b HCV [1]; 600 mg Compound 2 (equivalent of 550 mg Compound 1), n=3): 2.3 log10 IU/ml | Individual Max Reduction of HCV RNA (GT1b HCV [1]; Compound 2 equivalent of 92 mg Compound 1): 0.6 log10 IU/ml and 0.8 log10 IU/ml and 0.9 log10 IU/ml | Mean Max Reduction of HCV RNA (GT1b HCV [1]; Compound 2 equivalent of 92 mg Compound 1, n=3): 0.8 log10 IU/ml | Individual Max Reduction of HCV RNA (GT1b HCV [1]; Compound 2 equivalent of 275 mg Compound 1): 1.1 log10 IU/ml and 1.8 log10 IU/ml and 2.2 log10 IU/ml | Mean Max Reduction of HCV RNA (GT1b HCV [1]; Compound 2 equivalent of 275 mg Compound 1, n=3): 1.7 log10 IU/ml | Individual Max Reduction of HCV RNA (GT1b HCV [1]; Compound 2 equivalent of 368 mg Compound 1): 1.8 log10 IU/ml and 2.2 log10 IU/ml and 2.6 log10 IU/ml | Mean Max Reduction of HCV RNA (GT1b HCV [1]; Compound 2 equivalent of 368 mg Compound 1, n=3): 2.2 log10 IU/ml | HCV RNA < LOQ (15 IU/mL), subjects (GT1b HCV [2]; GT1 non-cirrhotic, 600 mg QD 7 days, n=6): 3/6 | subjects achieving HCV RNA <LOQ (GT1b HCV [2]; Part C, 600 mg QD 7 days): 50% | Mean ± SD HCV RNA maximum change from baseline (GT1b HCV [2]; Part C, 150 mg/day QD 7 days): 2.6 ± 1.1 log10 IU/mL | Individual HCV RNA maximum change from baseline (GT1b HCV [2]; Part C, 150 mg/day QD 7 days, listed as Compd 2): 1.7 log10 IU/mL and 1.8 log10 IU/mL (2×) and 2.7 log10 IU/mL and 3.0 log10 IU/mL and 4.5 log10 IU/mL | Mean ± SD HCV RNA change from baseline to 24 h (GT1b HCV [2]; Part C, 150 mg/day): 1.2 ± 0.3 log10 IU/mL | Mean ± SD HCV RNA maximum change from baseline (GT1b HCV [2]; Part C, 300 mg/day QD 7 days): 4.0 ± 0.4 log10 IU/mL | Individual HCV RNA maximum change from baseline (GT1b HCV [2]; Part C, 300 mg/day QD 7 days, listed as Compd 2): 3.4 log10 IU/mL and 3.7 log10 IU/mL and 3.9 log10 IU/mL and 4.2 log10 IU/mL (2×) and 4.5 log10 IU/mL | Mean ± SD HCV RNA change from baseline to 24 h (GT1b HCV [2]; Part C, 300 mg/day): 1.9 ± 0.2 log10 IU/mL | Individual HCV RNA maximum change from baseline (GT1b HCV [2]; Part C, 600 mg/day QD 7 days): 4.3 log10 IU/mL and 5.2 log10 IU/mL and 5.3 log10 IU/mL and 3.5 log10 IU/mL and 4.0 log10 IU/mL and 4.1 log10 IU/mL | Mean ± SD HCV RNA maximum change from baseline (GT1b HCV [2]; [5]): 4.4 ± 0.7 log10 IU/mL | Individual HCV RNA maximum change from baseline (GT1b HCV [2]; [5]): 3.5 log10 IU/mL and 4.0 log10 IU/mL and 4.1 log10 IU/mL and 4.3 log10 IU/mL and 5.2 log10 IU/mL and 5.3 log10 IU/mL | Mean ± SD HCV RNA change from baseline to 24 h (GT1b HCV [2]; Part C, 600 mg/day): 2.1 log10 IU/mL | Mean ± SD HCV RNA change from baseline to 24 h (GT1b HCV [2]; Part C, 600 mg/day, listed as Compd 2): 2.1 ± 0.2 log10 IU/mL | serious adverse events, dose-limiting toxicities, premature discontinuations ([3]; cirrhotic and non-cirrhotic HCV-infected subjects, up to 600 mg): No serious adverse events (AEs), dose-limiting toxicities, or premature discontinuations were reported; also recorded: No serious adverse events, dose-limiting toxicities or premature discontinuations were observed | lipid abnormalities (cholesterol and triglyceride increase) ([3]; compared to placebo): higher incidence of mostly low-grade lipid abnormalities | ALT/AST values ([3]; during the treatment period): decreased over time | AEs, laboratory parameters, ECGs and vital signs ([3]; in vivo): no other clinically relevant, dose-related patterns | liver injury ([3]; in vivo): no findings suggestive of liver injury | tolerability ([3]; up to 600 mg (salt form) for seven days): well tolerated | reductions in plasma HCV RNA (HCV GT1, GT2, GT3; 600 mg QD, steady state, regardless of genotype or cirrhosis status): −4.5 log10 IU/mL | plasma HCV RNA decrease within the first 24 h of dosing (HCV GT1, GT2, GT3; after the first 600 mg dose): up to 2.4 log10 IU/mL | subjects achieving HCV RNA below the lower limit of quantitation (HCV GT1, GT2, GT3; cohorts receiving 600 mg QD, seven days of therapy): ~30% | impact of mild hepatic impairment on PK [4]: did not significantly impact | HCV RNA < LOQ (15 IU/mL), subjects (GT3 HCV; GT3 non-cirrhotic, 600 mg QD 7 days, n=6): one subject achieved HCV RNA <LOQ within four days and 1/6 | Individual HCV RNA maximum change from baseline (GT3 HCV): 4.2 log10 IU/mL and 4.4 log10 IU/mL and 4.5 log10 IU/mL (2×) and 5.0 log10 IU/mL | Mean ± SD HCV RNA maximum change from baseline (GT3 HCV): 4.5 log10 IU/mL | Mean ± SD HCV RNA maximum change from baseline (GT3 HCV; listed as Compd 2): 4.5 ± 0.3 log10 IU/mL | Individual HCV RNA maximum change from baseline (GT3 HCV; listed as Compd 2): 4.2 log10 IU/mL and 4.4 log10 IU/mL (2×) and 4.5 log10 IU/mL (2×) and 5.0 log10 IU/mL | Mean ± SD HCV RNA change from baseline to 24 h (GT3 HCV): 2.4 log10 IU/mL | Mean ± SD HCV RNA change from baseline to 24 h (GT3 HCV; listed as Compd 2): 2.3 ± 0.3 log10 IU/mL | antiviral activity / HCV RNA change in cirrhotic compared with non-cirrhotic subjects (GT1, GT2, or GT3 HCV; 600 mg/day QD 7 days, Part E vs Parts C and D): similar | HCV RNA < LOQ (15 IU/mL), subjects (GT1, GT2, or GT3 HCV; [6]): 1/3 | Mean Max Reduction (GT1, GT2, or GT3 HCV; [6]): 4.2 log10 IU/mL | Mean Reduction After 24 hours (GT1, GT2, or GT3 HCV; GT1, Child-Pugh A, n=3): 2.4 log10 IU/mL | activity against HCV genotypes in cirrhotic patients (GT1, GT2, or GT3 HCV; GT1, GT2, and GT3): active | HCV RNA < LOQ (15 IU/mL), subjects (GT1, GT2, or GT3 HCV; [7]): 0/1 | Mean (Individual) Max Reduction (GT1, GT2, or GT3 HCV; [7]): 4.8 log10 IU/mL | Mean Reduction After 24 hours (GT1, GT2, or GT3 HCV; GT3, Child-Pugh A, n=1): 2.2 log10 IU/mL | Mean ± SD HCV RNA maximum change from baseline (GT1, GT2, or GT3 HCV): 4.6 log10 IU/mL and 4.5 log10 IU/mL | Mean ± SD HCV RNA maximum change from baseline (GT1, GT2, or GT3 HCV; listed as Compd 2): 4.6 ± 0.5 log10 IU/mL | Mean ± SD HCV RNA change from baseline to 24 h (GT1, GT2, or GT3 HCV): 2.4 log10 IU/mL | Mean ± SD HCV RNA change from baseline to 24 h (GT1, GT2, or GT3 HCV; listed as Compd 2): 2.4 ± 0.2 log10 IU/mL | Individual HCV RNA maximum change from baseline (GT1, GT2, or GT3 HCV; cirrhotic GT1b, 600 mg/day QD 7 days): 4.0 log10 IU/mL and 4.1 log10 IU/mL and 4.5 log10 IU/mL | Individual HCV RNA maximum change from baseline (GT1, GT2, or GT3 HCV; cirrhotic GT1b, 600 mg/day QD 7 days, listed as Compd 2): GT1b: 4.0, log10 IU/mL and 4.1 log10 IU/mL and 4.5 log10 IU/mL | Individual HCV RNA maximum change from baseline (GT1, GT2, or GT3 HCV; cirrhotic GT2, 600 mg/day QD 7 days): GT2: 4.8 log10 IU/mL | Individual HCV RNA maximum change from baseline (GT1, GT2, or GT3 HCV; cirrhotic GT3, 600 mg/day QD 7 days, listed as Compd 2): 5.1 log10 IU/mL and 5.2 log10 IU/mL
